Measurements from US20250197372A1 (priority 2020, published 2025).
pIC50: −log10 of the molar value. Where two headings read alike, the source gives them in different places.

How the values were obtained:
Assay type in all cases: biochemical
[1] = molecular target: T1, recombinant alpha-glucosidase I (human full-length glucosidase I, Glu 1) (Homo sapiens, UniProt Q13724); assay: Alpha-glucosidase I assay (Amplex Red glucose detection, synthetic trisaccharide substrate)
T1 construct: 6-His (C); made in house; host or cells: HEK-293T cells transduced with BacMam virus (virus raised in Sf9)
T1 sequence (Q13724 1-837): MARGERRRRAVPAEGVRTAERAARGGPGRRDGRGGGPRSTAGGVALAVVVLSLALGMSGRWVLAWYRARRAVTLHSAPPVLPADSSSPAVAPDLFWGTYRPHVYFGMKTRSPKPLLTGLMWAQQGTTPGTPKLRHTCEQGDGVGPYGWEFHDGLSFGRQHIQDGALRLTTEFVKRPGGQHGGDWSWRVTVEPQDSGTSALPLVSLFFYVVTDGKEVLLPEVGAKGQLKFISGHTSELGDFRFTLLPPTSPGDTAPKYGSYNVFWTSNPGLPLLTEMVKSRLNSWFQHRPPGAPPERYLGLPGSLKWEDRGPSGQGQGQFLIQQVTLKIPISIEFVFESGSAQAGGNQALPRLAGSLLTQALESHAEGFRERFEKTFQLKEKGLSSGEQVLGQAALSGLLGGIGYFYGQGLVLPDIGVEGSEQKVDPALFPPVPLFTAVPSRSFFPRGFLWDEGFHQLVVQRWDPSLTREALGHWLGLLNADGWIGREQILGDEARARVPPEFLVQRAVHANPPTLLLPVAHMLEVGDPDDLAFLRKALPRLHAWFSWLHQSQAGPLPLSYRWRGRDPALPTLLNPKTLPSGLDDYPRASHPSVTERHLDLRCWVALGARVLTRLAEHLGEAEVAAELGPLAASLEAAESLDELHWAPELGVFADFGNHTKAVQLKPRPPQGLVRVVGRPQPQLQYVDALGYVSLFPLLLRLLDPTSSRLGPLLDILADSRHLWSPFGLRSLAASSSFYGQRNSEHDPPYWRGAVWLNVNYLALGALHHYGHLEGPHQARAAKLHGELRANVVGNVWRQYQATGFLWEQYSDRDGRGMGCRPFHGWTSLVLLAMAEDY
Excerpt: Preparation of Human Full-length Glucosidase I: The amino acid sequence for human full-length glucosidase I was obtained from UniProt (Q13724). […] The entry vector was cloned into Kemp Proteins' BacMam Destination vector and transformed into chemically competent DH10Bac E. coli cells to produce recombinant glucosidase I bacmids. Bacmid isolates were obtained following two rounds of blue-white screening and they were transfected into Sf9 cells cultivated in serum-free medium (Thermo Fisher Scientific). Four days post-transfection the culture supernatants containing virus were harvested and filter sterilized. […] A multiplicity of infection (MOI, ratio of virus to cells) of 4 was selected. Soluble glucosidase I was detected by anti-His western blots in the soluble cell extract following extraction with 1% V/V NP40 for 30 minutes at 0° C. Productions and purifications of glucosidase I were carried out at scales ranging from 1-liter to 10-liters. […] In another example production at the 10-liter scale was performed in stirred-tank bioreactors at 27° C. and 80 rpm with dissolved oxygen level at 50% of oxygen in air and pH between 7.0 and 7.2. Cells were transduced at MOI of 4 and the cell pellet was harvested at 48 hours post-transduction using centrifugation.
The pellet from a 10-liter culture was lysed by resuspending the pellet into 1-liter of 50 mM NaH2PO4—H2O+300 mM NaCl+10 mM Imidazole+1 mM PMSF+1% V/V NP40 pH 8. The suspension was incubated on ice for 30 minutes and clarified at 500×g and 4° C. The supernatant was collected and clarified at 20,000×g for 30 minutes at 4° C. and the supernatant was collected and filtered through a 0.2 micron filter. […] The column was washed with 20 column volumes (CV) of 50 mM NaH2PO4-H2O+300 mM NaCl+10 mM Imidazole pH 8 and eluted using a linear gradient of 0-60% 50 mM NaH2PO4-H2O+300 mM NaCl+500 mM Imidazole pH 8 over 90 minutes. at 5 mL per minute. Fractions (25 mL) were collected and analyzed by SDS PAGE and Western Blot (reducing anti-His). Fractions containing purified glucosidase I were pooled and dialyzed into storage buffer (20 mM Tris+300 mM NaCl+50 mM L-arginine+10 mM EDTA+0.01% V/V Tween 80 pH 7.5). The final material was filter sterilized and stored at 4° C. and the working dilution confirmed by a use-test in the indicated assay conditions prior to use.
Alpha-glucosidase I Assay: The assay was performed by incubating recombinant alpha-glucosidase I enzyme with multiple dilutions of test compounds for 60 minutes at 37° C. A synthetic trisaccharide substrate analog was then introduced to the mixture for 90 minutes at 37° C. The reaction was then stopped with 1.5M Tris (pH 8). In the absence of inhibition, the terminal glucose of the substrate was hydrolyzed by the enzyme. The D-glucose product was detected using Amplex Red Glucose/Glucose Oxidase Assay Kit (Invitrogen) following the manufacturer's directions where glucose oxidase reacts with D-glucose to form D-gluconolactone and H2O2 which then reacts with the Amplex Red reagent to generate a red-fluorescent oxidation product (560 nm, excitation; 590 nm, emission). […] Percent inhibition is plotted as a function of concentration for each compound, compared to control reactions. The IC50 was determined using a 4-PL curve fit and serves as a measure of relative inhibitory activity of each test compound (see Table 3).

[2] = molecular target: T2, recombinant alpha-glucosidase II (murine full-length glucosidase II, alpha and beta subunits, Glu 2) (Mus musculus, UniProt Q8BHN3); assay: Alpha-glucosidase II assay (4-methylumbelliferyl-alpha-D-pyranoside substrate, fluorescence)
T2 construct: made in house; host or cells: HEK-293T cells transduced with BacMam viruses (75% alpha, 25% beta); protein harvested from culture supernatant
T2 sequence (O08795 15-521): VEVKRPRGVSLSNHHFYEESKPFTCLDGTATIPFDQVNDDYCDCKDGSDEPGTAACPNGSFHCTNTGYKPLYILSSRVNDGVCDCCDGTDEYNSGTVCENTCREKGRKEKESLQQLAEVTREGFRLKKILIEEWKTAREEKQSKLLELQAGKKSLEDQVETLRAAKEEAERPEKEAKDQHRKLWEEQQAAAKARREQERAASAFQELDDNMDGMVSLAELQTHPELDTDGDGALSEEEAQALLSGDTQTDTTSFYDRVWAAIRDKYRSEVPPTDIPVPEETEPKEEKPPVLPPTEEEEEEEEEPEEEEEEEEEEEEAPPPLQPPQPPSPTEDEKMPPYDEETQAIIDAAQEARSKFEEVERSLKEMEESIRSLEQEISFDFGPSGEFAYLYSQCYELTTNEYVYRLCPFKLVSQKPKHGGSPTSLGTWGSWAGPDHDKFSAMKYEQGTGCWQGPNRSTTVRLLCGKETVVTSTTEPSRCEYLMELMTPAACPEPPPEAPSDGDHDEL
T2 sequence (Q8BHN3 33-944): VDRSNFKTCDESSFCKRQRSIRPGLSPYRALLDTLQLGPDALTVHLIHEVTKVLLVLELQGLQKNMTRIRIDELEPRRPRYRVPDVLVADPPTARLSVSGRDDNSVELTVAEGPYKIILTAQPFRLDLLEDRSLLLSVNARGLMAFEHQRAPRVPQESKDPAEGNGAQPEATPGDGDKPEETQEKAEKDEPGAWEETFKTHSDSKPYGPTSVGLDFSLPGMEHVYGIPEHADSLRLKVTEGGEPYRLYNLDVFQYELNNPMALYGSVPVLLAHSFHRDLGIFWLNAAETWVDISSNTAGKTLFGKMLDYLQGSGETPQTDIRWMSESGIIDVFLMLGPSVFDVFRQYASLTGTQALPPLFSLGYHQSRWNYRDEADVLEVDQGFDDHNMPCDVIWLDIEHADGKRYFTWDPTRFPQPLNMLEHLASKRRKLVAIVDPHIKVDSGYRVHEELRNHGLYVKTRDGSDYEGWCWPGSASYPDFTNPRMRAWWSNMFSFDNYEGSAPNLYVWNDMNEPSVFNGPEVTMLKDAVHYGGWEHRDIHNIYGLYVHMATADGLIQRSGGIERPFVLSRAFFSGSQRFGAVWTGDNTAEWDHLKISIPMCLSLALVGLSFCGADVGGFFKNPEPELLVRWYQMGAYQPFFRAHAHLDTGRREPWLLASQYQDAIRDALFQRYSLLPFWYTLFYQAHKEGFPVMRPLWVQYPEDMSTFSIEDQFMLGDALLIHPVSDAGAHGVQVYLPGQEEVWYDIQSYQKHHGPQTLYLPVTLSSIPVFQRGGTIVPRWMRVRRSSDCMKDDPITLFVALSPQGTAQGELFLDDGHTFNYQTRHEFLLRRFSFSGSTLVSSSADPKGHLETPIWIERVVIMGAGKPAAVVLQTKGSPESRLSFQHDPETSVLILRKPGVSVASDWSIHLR

[3] = molecular target: rat maltase (partially purified alpha-glucosidase from intestinal rat powder); assay: Intestinal alpha-glucosidase assay, maltose substrate (Glucose GO Kit)
Protocol: Intestinal alpha-glucosidases (rat maltase and sucrase): Intestinal alpha-glucosidases act upon 1,4-alpha-glucoside bonds, breaking down disaccharides to glucose. To perform this assay, partially purified alpha-glucosidase from intestinal rat powder was incubated for 60 minutes at 37° C. with multiple dilutions of test compounds. Maltose or Sucrose respectively was then introduced as substrate to the mixture and incubated for 30 minutes at 37° C. The reaction was stopped by a 5-minute incubation at 90° C. and the resultant glucose production is detected using Sigma's Glucose GO Kit. Percent inhibition was then plotted as a function of concentration for each test compound. The IC50 was determined using a 4-PL curve fit and serves as the measure of relative inhibition of each test compound (see Table 3).

[4] = Glucosidase 1, read-out: Glu 1 IC50
[5] = Glucosidase 2, read-out: Glu2 IC50

Compound | pIC50 [1, 4] | pIC50 [2, 5] | pIC50 [3] | pIC50 [1] | pIC50 [2]
OC[C@@H]1[C@@H](O)[C@H](O)[C@@H](O)CN1Cc1ccc(CNc2cc(-c3cccnn3)cc(C3CC3)c2)cc1 [Compound 1012, (2R,3R,4R,5S)-1-{[4-({[3-cyclopropyl-5-(pyridazin-3-yl)phenyl]amino}methyl)phenyl]methyl}-2-(hydroxymethyl)piperidine-3,4,5-triol] | 7.74 | 5.88 | 8.05 |  | 
O=[N+]([O-])c1cc(CCO)ccc1NCCCCCCN1C[C@H](O)[C@@H](O)[C@H](O)[C@H]1CO [Compound 1292, (2R,3R,4R,5S)-1-(6-{[4-(2-hydroxyethyl)-2-nitrophenyl]amino}hexyl)-2-(hydroxymethyl)piperidine-3,4,5-triol] |  | 8.07 | 7.96 | 6.80 | 
[N-]=[N+]=Nc1ccc(NCc2cccc(CN3C[C@H](O)[C@@H](O)[C@H](O)[C@H]3CO)c2)c([N+](=O)[O-])c1 [Compound 1169, (2R,3R,4R,5S)-1-[(3-{[(4-azido-2-nitrophenyl)amino]methyl}phenyl)methyl]-2-(hydroxymethyl)piperidine-3,4,5-triol] | 7.17 | 4.79 | > 9.00 |  | 
[N-]=[N+]=Nc1ccc(NCc2ccc(-c3ccc(CN4C[C@H](O)[C@@H](O)[C@H](O)[C@H]4CO)cc3)cc2)c([N+](=O)[O-])c1 [Compound 1166, (2R,3R,4R,5S)-1-[(4′-{[(4-azido-2-nitrophenyl)amino]methyl}-[1,1′-biphenyl]-4-yl)methyl]-2-(hydroxymethyl)piperidine-3,4,5-triol] | 6.74 | 5.70 | > 9.00 |  | 
OC[C@@H]1[C@@H](O)[C@H](O)[C@@H](O)CN1CCc1ccc(CCNc2cc(Cl)cc(-c3ncccn3)c2)cc1 [Compound 1162, (2R,3R,4R,5S)-1-{2-[4-(2-{[3-chloro-5-(pyrimidin-2-yl)phenyl]amino}ethyl)phenyl]ethyl}-2-(hydroxymethyl)piperidine-3,4,5-triol] | 6.29 | > 9.00 | 6.86 |  | 
O=[N+]([O-])c1cc(C2CC2)ccc1NCCCCCCN1C[C@H](O)[C@@H](O)[C@H](O)[C@H]1CO [Compound 1136, (2R,3R,4R,5S)-1-{6-[(4-cyclopropyl-2-nitrophenyl)amino]hexyl}-2-(hydroxymethyl)piperidine-3,4,5-triol] | 7.60 | 9.00 | > 9.00 |  | 
[N-]=[N+]=Nc1ccc(NCCc2cnn(CCN3C[C@H](O)[C@@H](O)[C@H](O)[C@H]3CO)c2)c([N+](=O)[O-])c1 [Compound 1191, (2R,3R,4R,5S)-1-[2-(4-{2-[(4-azido-2-nitrophenyl)amino]ethyl}-1H-pyrazol-1-yl)ethyl]-2-(hydroxymethyl)piperidine-3,4,5-triol] | 5.12 | 4.69 | 6.77 |  | 
COc1cc(NCCCCCCN2C[C@H](O)[C@@H](O)[C@H](O)[C@H]2CO)cc(C2=CCCCC2)c1 [Compound 1149, (2R,3R,4R,5S)-1-(6-{[3-(cyclohex-1-en-1-yl)-5-methoxy-phenyl]amino}hexyl)-2-(hydroxymethyl)piperidine-3,4,5-triol] | 6.58 | > 9.00 | > 9.00 |  | 
O=Cc1cc(-c2ncccn2)ccc1NCCCCCCN1C[C@H](O)[C@@H](O)[C@H](O)[C@H]1CO [Compound 1184, 5-(pyrimidin-2-yl)-2-({6-[(2R,3R,4R,5S)-3,4,5-trihydroxy-2-(hydroxymethyl)piperidin-1-yl]hexyl}amino)benzaldehyde] | 7.08 | 9.00 | 8.22 |  | 
OC[C@@H]1[C@@H](O)[C@H](O)[C@@H](O)CN1CCc1ccc(CCNc2cc(Cl)cc(-c3cccnn3)c2)cc1 [Compound 1163, (2R,3R,4R,5S)-1-{2-[4-(2-{[3-chloro-5-(pyridazin-3-yl)phenyl]amino}ethyl)phenyl]ethyl}-2-(hydroxymethyl)piperidine-3,4,5-triol] |  | > 9.00 | 6.51 | 6.68 | 
CS(=O)(=O)c1cc(Br)cc(NCc2cccc(CN3C[C@H](O)[C@@H](O)[C@H](O)[C@H]3CO)c2)c1 [Compound 1022, (2R,3R,4R,5S)-1-[(3-{[(3-bromo-5-methanesulfonylphenyl)amino]methyl}phenyl)methyl]-2-(hydroxymethyl)piperidine-3,4,5-triol] |  | 5.10 | 7.55 | 7.72 | 
[N-]=[N+]=Nc1ccc(NCCc2cc(CCN3C[C@H](O)[C@@H](O)[C@H](O)[C@H]3CO)ccc2C2CCCCC2)c([N+](=O)[O-])c1 [Compound 1171, (2R,3R,4R,5S)-1-[2-(3-{2-[(4-azido-2-nitrophenyl)amino]ethyl}-4-cyclohexylphenyl)ethyl]-2-(hydroxymethyl)piperidine-3,4,5-triol] | 6.52 | 5.99 | 5.25 |  | 
O=[N+]([O-])c1cc(N2C3CCC2COC3)ccc1NCc1ccc(CN2CC(O)C(O)C(O)C2CO)cc1 (stereo in doubt) [Compound 1018, (2S,3S,4S,5R)-2-(hydroxymethyl)-1-({4-[({2-nitro-4-[(1R,5S)-3-oxa-8-azabicyclo[3.2.1]octan-8-yl]phenyl}amino)methyl]phenyl}methyl) piperidine-3,4,5-triol] |  |  | > 9.00 | > 9.00 | > 9.00
C[C@@H]1CN(c2ccc(NCc3ccc(CN4C[C@H](O)[C@@H](O)[C@H](O)[C@H]4CO)cc3)c([N+](=O)[O-])c2)C[C@H](C)O1 [Compound 1014] |  | 8.40 | 8.22 | 9.00 | 
OC[C@@H]1[C@@H](O)[C@H](O)[C@@H](O)CN1CCc1ccc(CCNc2cc(Cl)cc(C3=CCOCC3)c2)cc1 [Compound 1160, (2R,3R,4R,5S)-1-{2-[4-(2-{[3-chloro-5-(3,6-dihydro-2H-pyran-4-yl)phenyl]amino}ethyl)phenyl]ethyl}-2-(hydroxymethyl)piperidine-3,4,5-triol] | 5.80 |  | 7.12 |  | 
